Assay results taken from patent US12024494B2, “Salt of LSD1 inhibitor and a polymorph thereof” (CSPC ZHONGQI PHARMACEUTICAL TECHNOLOGY (SHIJIAZHUANG) CO., …, priority 2018, dated 2024).

Assays:
[1] = Solid stability of the crystal form (XRPD) under high temperature, high humidity and light; type: physicochemical
Method: For the samples placed under the conditions of high temperature (60° C.) and high humidity (relative humidity of 92.5% RH), the bottle opening was sealed with an aluminum foil, and some small holes were pierced in the aluminum foil to ensure that the sample can be sufficiently in contact with ambient air, and the samples were placed in the corresponding constant temperature and humidity ovens. The sample exposed to light (open, not covered with aluminum foil) and the control sample (the entire sample bottle was covered with aluminum foil) were placed in a light box. At each time point, 2 samples were weighed as formal test samples. […] The sample bottles were wrapped with an aluminum foil, and the aluminum foil was pierced with small holes. They were also placed in the corresponding constant temperature and humidity ovens. The sample was taken and detected (by XRPD) at the 5th day and 10th day, and the detection results were compared with the initial detection result at 0 day.

[2] = molecular target: LSD1 (Homo sapiens (Human), UniProt O60341); experiment: LSD1 inhibition, enzyme fluorescent conjugated method; type: biochemical; settings: 10 concentrations, initial 10 μM, 3-fold dilution, read-out: IC50 (nM) Mean ± standard deviation
Method: The experiment was conducted in duplicate with an initial concentration of 10 μM diluted in a gradient of 3 times, and it was repeated twice at different dates.
LSD1 buffer composition: 50 mM Tris-HCl, pH 7.5, 0.05% CHAPS, 1% DMSO.
Reaction time: reacted at room temperature for 1 hour
1.2.1 Adding enzyme to a freshly prepared buffer
1.2.2 Adding a DMSO solution of the compound to the enzyme mixture using Acoustic Technology (Echo 550, LabCyte Inc. Sunnyvale, CA) at nL level, and incubating at room temperature for 30 minutes
1.2.3 Adding the substrate to a freshly prepared buffer
1.2.4 Incubating at room temperature for 1 hour
1.2.5 Preparing to test the mixture
1.2.6 Using Perkin Elmer Envision to read data
1.2.7 Using Excel and GraphPad Prism software to analyze data

[3] = Solvent stability of the crystal form (suspension, 40° C., 2 days); type: physicochemical; settings: for Crystal form: 40° C., 2 days
Method: Appropriate amounts of the compound III were weighed and added to different glass vials, and added respectively with appropriate amount of a solvent or a solvent mixture to prepare a suspension. After added with a magnet rotor and placed at room temperature, the above samples were placed on a constant temperature mixer (40° C.) to be shaken for 2 days (avoid from light). In order to ensure that the sample was as suspended as possible, the amount of the compound and the solvent would be adjusted according to the test phenomenon and even the container used in the experiment may be changed during the experiment. (The dissolved sample was evaporated naturally to dryness).

[4] = Hygroscopicity by dynamic vapor adsorption (DVS); type: physicochemical; settings: 25° C. and 80% RH
Method: Instrument model: SMS DVS Advantage dynamic vapor adsorption instrument Test conditions: a sample (10˜15 mg) was taken and placed in the DVS sample pan for testing.
Balance: dm/dt=0.01%/min (shortest: 10 min, longest: 180 min)
drying: drying at 0% RH for 120 min
RH (%) test step range: 0%-90%-0%
Experimental Materials: SMS DVS Advantage dynamic vapor adsorption instrument

[5] = test system: human small cell lung cancer NCI-H1417 cell subcutaneous xenograft tumor; experiment: In vivo efficacy on NCI-H1417 subcutaneous xenograft tumor in CB-17 SCID mouse; settings: for TGI (%) (Day 35) / Tumor volume (mm^3) (Day 35): PO, QD
Method: Week age and weight: 6-8 weeks old, weight: 16-21 grams
Human small cell lung cancer NCI-H1417 cells were cultured in a monolayer in vitro with RPMI-1640 medium plus 10% fetal bovine serum, at 37° C. and 5% CO2 to culture and passage. When the cell saturation was 80%-90%, the cells were collected by trypsin-EDTA digestion, counted, adjusted to 10×10^7 cells/mL and resuspended in PBS.
0.2 mL (10×10^6 cells) of NCI-H1417 cells (with Matrigel, volume ratio 1:1) were subcutaneously inoculated on the right back of each mouse. When the average tumor volume reached about 100-150 mm^3, the mice were grouped randomly and started to be administered.
The experimental vehicle was a 0.5% methyl cellulose solution. 5 g of methyl cellulose was weighed, dissolved in 800 mL of ultrapure water, stirred evenly and brought to the volume of 1000 mL with ultrapure water. The test substance was dissolved in the vehicle, prepared into a uniform solution of a certain concentration, and stored at 4° C.
The experimental indicator was to investigate whether the tumor growth was inhibited, delayed or cured. The tumor diameter was measured with a vernier caliper twice a week. The tumor volume is calculated by the formula of V=0.5a×b^2, where a and b represent the long diameter and short diameter of the tumor, respectively.
TGI (%) is used for the anti-tumor efficacy of the compound. TGI (%) reflects the tumor growth inhibition rate. TGI (%)=[(1−(Average tumor volume at the end of the administration of a certain treatment group−average tumor volume at the beginning of the administration of the treatment group))/(Average tumor volume at the end of treatment in the vehicle control group−Average tumor volume at the beginning of the treatment in the vehicle control group)]×100%. Vehicle control group: Vehicle (0.5% methylcellulose solution).

- Crystal form ([1]; 0 day (initial)): Crystal Form A
- Crystal form ([1]; High humidity (relative humidity 92.5%, open), 5th day): Crystal Form A
- Crystal form ([1]; High humidity (relative humidity 92.5%, open), 10th day): Crystal Form A
- Crystal form ([1]; High temperature (60° C., open), 5th day): Crystal Form A
- Crystal form ([1]; High temperature (60° C., open), 10th day): Crystal Form A
- Crystal form ([1]; Light (total illuminance = 1.2 × 10^6 Lux·hr/near ultraviolet = 200 w·hr/m^2, open), 5th day): Crystal Form A
- Crystal form ([1]; Light (total illuminance = 1.2 × 10^6 Lux·hr/near ultraviolet = 200 w·hr/m^2, open), 10th day): Crystal Form A
- Solid stability (conclusion) ([1]; high temperature, high humidity and strong light): good stability
- IC50 [2]: 8 nM
- Crystal form ([3]; Acetonitrile): Crystal form A
- Crystal form ([3]; Isopropanol): Crystal form A
- Crystal form ([3]; Isopropyl acetate): Crystal form A
- Crystal form ([3]; Methanol, dissolved, and then precipitated): Crystal form A
- Crystal form ([3]; Tetrahydrofuran): Crystal form A
- Solvent stability (conclusion) ([3]; in the solvent): good stability
- Classification of hygroscopicity [4]: slightly hygroscopic
- ΔW (moisture weight gain) [4]: 1.14%
Structure (SMILES): N[C@H]1CC[C@H](c2nc(C3(CN[C@@H]4C[C@H]4c4ccccc4)CC3)no2)CC1 [Crystal form A of Compound III]
- TGI (%) (Day 35) ([5]; 1 mg/kg): 81.9%
- Tumor volume (mm^3) (Day 35) ([5]; 1 mg/kg): 178 ± 17 mm^3
- TGI (%) (Day 35) ([5]; 1.5 mg/kg): 99.2%
- Tumor volume (mm^3) (Day 35) ([5]; 1.5 mg/kg): 121 ± 15 mm^3
- TGI (%) (Day 35) ([5]; 3 mg/kg): 115.6%
- Tumor volume (mm^3) (Day 35) ([5]; 3 mg/kg): 68 ± 13 mm^3
- Anti-tumor effect (conclusion) ([5]; NCI-H1417 xenograft tumor model): excellent anti-tumor effect
